Data reported in article PMC4805166, “Synthetic Cyclolipopeptides Selective against Microbial, Plant and Animal Cell Targets by Incorporation of D-Amino Acids or Histidine” (PLoS ONE, 2016).
Where a SMILES comes first, the peptide text is derived from it. [ ]: non-standard residue; d: D form. The star is where a group is joined. Palmitoyl = CCCCCCCCCCCCCCCC(=O)*; Octanoyl = CCCCCCCC(=O)*; X1 = O=C(CCCCCCCCCCCO)*; Hexanoyl = CCCCCC(=O)*; Butyryl = CCCC(=O)*

Legend:
[1] = system: erythrocyte suspensions of horse blood; conditions: horse erythrocytes 5% vol/vol, TRIS buffer pH 7.2, 1 h at 37°C, absorbance 540 nm, relative to melittin 100 μM, ± confidence interval (α = 0.05); for Hemolysis (%) 150 µM: 150 µM peptide; for Hemolysis (%) 250 µM: 250 µM peptide;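 for all read-outs here: Read-out is hemoglobin release into the supernatant, with a buffer-only blank subtracted as the 0% baseline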
Description: Blood was centrifuged at 6000g for 5 min, washed three times with TRIS buffer (10 mM TRIS, 150 mM NaCl, pH 7.2) and diluted.
Compounds were solubilized in TRIS buffer and mixed with horse erythrocytes and the final concentrations tested were 250 and 150 μM. The mixture was incubated under continuous shaking for 1 h at 37°C. Then, the tubes were centrifuged at 3500g for 10 min, 80 μL aliquots of the supernatant transferred to 100-well microplates (Bioscreen), diluted with 80 μL water, and the absorbance measured at 540 nm (Bioscreen). Complete hemolysis was obtained by the addition of melittin at 100 μM (Sigma-Aldrich Corporation, Madrid, Spain). The percentage of hemolysis (H) was calculated using the equation: H = 100×[(Op−Ob)/(Om−Ob)], where Op was the density for a given compound concentration, Ob for the buffer, and Om for the melittin positive control.

[2] = system: Fusarium oxysporum f. sp. lycopersici FOL 3 race 2; assay: MIC, antifungal growth inhibition; assay type: cell-based; conditions: PDB with 0.003% chloramphenicol, 20°C, seven days, OD 600 nm; tested at 3.1, 6.2, 12.5, 25, 50 μM; three replicates, repeated twice
Description: Fusarium oxysporum f. sp. lycopersici FOL 3 race 2 (ATCC 201829, American Type Culture Collection) was used as fungal pathogen. The strain was cultured on potato dextrose agar (PDA) plates (Difco) and microconidia were obtained after growth at 25°C. The concentration of conidia was determined using a hemacytometer and adjusted to 10^4 conidia mL^-1.
(§1) Lyophilized peptides were solubilized in sterile Milli-Q water to a final concentration of 1 mM and filter sterilized through a 0.22-μm pore filter. For minimum inhibitory concentration (MIC) assessment, dilutions of the compounds were made to obtain a stock concentration of […]. For antibacterial activity twenty microlitres of each dilution were mixed in a microtiter plate well with 20 μL of the corresponding suspension of the bacterial indicator, 160 μL of Trypticase Soy Broth (TSB) (BioMèrieux, France) to a total volume of 200 μL. For antifungal activity 20 μL of each stock solution were mixed in a microtiter plate well with 80 μL of the corresponding suspension of the fungal pathogen and 100 μL of double concentrated PDB to a total volume of 200 μL containing 0.003% w/v of choramphenicol.
(§2) Three replicates for each strain, compound and concentration were used. Microbial growth was determined by optical density measurement at 600 nm (Bioscreen C, Labsystem, Helsinki, Finland). For antibacterial activity microplates were incubated at 25°C with 20 sec shaking before hourly absorbance measurement for 48 h. For antifungal activity microplates were incubated at 20°C with 1 min shaking before absorbance measurement that were done every two hours during seven days. The experiment was repeated twice. The MIC was taken as the lowest compound concentration with no growth at the end of the experiment.

[3] = system: Pseudomonas syringae pv. syringae EPS94; assay type: cell-based; conditions: 48 h
Description: (§3) The following plant pathogenic bacterial strains were used: Erwinia amylovora PMV6076 (Institut National de la Recherche Agronomique, Angers, France), Pseudomonas syringae pv. syringae EPS94 (Institut de Tecnologia Agroalimentària, Universitat de Girona, Spain) and Xanthomonas axonopodis pv. vesicatoria 2133–2 (Instituto Valenciano de Investigaciones Agrarias, Valencia, Spain). All bacteria were stored in Luria Bertani (LB) broth supplemented with glycerol (20%) and maintained at -80°C. Bacteria were scrapped from LB agar after growing for 24–48 h at 25°C. The cell material was suspended in sterile water to obtain a suspension of 10^8 CFU mL^-1.
as §1, §2

[4] = system: Xanthomonas axonopodis pv. vesicatoria 2133–2; assay type: cell-based; conditions: TSB, 25°C, 48 h, OD 600 nm; tested at 3.1, 6.2, 12.5, 25, 50 μM; three replicates, experiment repeated twice; MIC = lowest concentration with no growth
Description: as §3, §1, §2

[5] = system: Erwinia amylovora PMV6076; assay: MIC, in vitro growth inhibition; assay type: cell-based; conditions: TSB, 25°C, 48 h, OD 600 nm; tested at 3.1, 6.2, 12.5, 25, 50 μM; three replicates, experiment repeated twice; MIC = lowest concentration with no growth
Description: as §3, §1, §2

SMILES: CCCCCCCCCCCCCCCC(=O)NCCCC[C@@H]1NC(=O)[C@H](CCCCN)NC(=O)[C@H](CC(C)C)NC(=O)[C@H](CCCCN)NC(=O)[C@H](CCCCN)NC(=O)[C@H](CCC(N)=O)NC(=O)[C@H](CC(C)C)NC(=O)[C@H](CCCCN)NC(=O)[C@H](CCCCN)NC(=O)[C@H](Cc2ccccc2)NC1=O [BPC502, c(KKLKK(CO-C15H31)FKKLQ)] (cyclo(FKKLQKKLKK(Palmitoyl)))
- Hemolysis (%) 150 µM [1]: 78 ± 1%
- Hemolysis (%) 250 µM [1]: 99 ± 2%
- MIC Fo [2]: >50 µM
- MIC Pss [3]: >50 µM
- MIC Xav [4]: >50 µM
- MIC Ea [5]: >50 µM

SMILES: CCCCCCCC(=O)NCCCC[C@@H]1NC(=O)[C@H](CCCCN)NC(=O)[C@H](CC(C)C)NC(=O)[C@H](CCCCN)NC(=O)[C@H](CCCCN)NC(=O)[C@H](CCC(N)=O)NC(=O)[C@H](CC(C)C)NC(=O)[C@H](CCCCN)NC(=O)[C@H](CCCCN)NC(=O)[C@H](Cc2ccccc2)NC1=O [BPC498, c(KKLKK(CO-C7H15)FKKLQ)] (cyclo(FKKLQKKLKK(Octanoyl)))
- Hemolysis (%) 150 µM [1]: 78 ± 4%
- Hemolysis (%) 250 µM [1]: 100 ± 12%
- MIC Fo [2]: 3.1 to 6.2 µM
- MIC Pss [3]: 12.5 to 25 µM
- MIC Xav [4]: 6.2 to 12.5 µM
- MIC Ea [5]: 25 to 50 µM

SMILES: CCCCCC(=O)NCCCC[C@@H]1NC(=O)[C@H](Cc2ccccc2)NC(=O)[C@H](CCCCN)NC(=O)[C@H](CCCCN)NC(=O)[C@H](CC(C)C)NC(=O)[C@H](CCCCN)NC(=O)[C@H](CCCCN)NC(=O)[C@H](CCC(N)=O)NC(=O)[C@H](CC(C)C)NC(=O)[C@H](CCCCN)NC1=O [BPC584, c(KKLKKFK(CO-nC5H11)KLQ)] (cyclo(FK(Hexanoyl)KLQKKLKK))
- Hemolysis (%) 150 µM [1]: 72 ± 5%
- Hemolysis (%) 250 µM [1]: 97 ± 12%
- MIC Fo [2]: 25 to 50 µM
- MIC Pss [3]: 12.5 to 25 µM
- MIC Xav [4]: 6.2 to 12.5 µM
- MIC Ea [5]: 25 to 50 µM

SMILES: CCCCCC(=O)NCCCC[C@@H]1NC(=O)[C@H](CCCCN)NC(=O)[C@H](CC(C)C)NC(=O)[C@H](CCCCN)NC(=O)[C@H](CCCCN)NC(=O)[C@H](CCC(N)=O)NC(=O)[C@H](CC(C)C)NC(=O)[C@H](CCCCN)NC(=O)[C@H](CCCCN)NC(=O)[C@@H](Cc2ccccc2)NC1=O [BPC624, c(KKLKK(CO-nC5H11)fKKLQ)] (cyclo(KKLKK(Hexanoyl)[dF]KKLQ))
- Hemolysis (%) 150 µM [1]: 53 ± 5%
- Hemolysis (%) 250 µM [1]: 64 ± 9%
- MIC Fo [2]: 6.2 to 12.5 µM
- MIC Pss [3]: 12.5 to 25 µM
- MIC Xav [4]: 6.2 to 12.5 µM
- MIC Ea [5]: 25 to 50 µM

SMILES: CCCC(=O)NCCCC[C@@H]1NC(=O)[C@H](CCC(N)=O)NC(=O)[C@H](CC(C)C)NC(=O)[C@H](CCCCN)NC(=O)[C@H](CCCCN)NC(=O)[C@H](Cc2ccccc2)NC(=O)[C@H](CCCCN)NC(=O)[C@H](CCCCN)NC(=O)[C@H](CC(C)C)NC(=O)[C@H](CCCCN)NC1=O [BPC710] (cyclo(FKKLQK(Butyryl)KLKK))
- Hemolysis (%) 150 µM [1]: 7 ± 1%
- MIC Fo [2]: <3.1 µM
- MIC Pss [3]: 12.5 to 25 µM
- MIC Xav [4]: 3.1 to 6.2 µM
- MIC Ea [5]: 25 to 50 µM

SMILES: CCCCCC(=O)NCCCC[C@@H]1NC(=O)[C@H](CCCCN)NC(=O)[C@H](Cc2ccccc2)NC(=O)[C@H](CCCCN)NC(=O)[C@H](CCCCN)NC(=O)[C@H](CC(C)C)NC(=O)[C@H](CCCCN)NC(=O)[C@H](CCCCN)NC(=O)[C@H](CCC(N)=O)NC(=O)[C@H](CC(C)C)NC1=O [BPC582] (cyclo(FKK(Hexanoyl)LQKKLKK))
- Hemolysis (%) 150 µM [1]: 92 ± 3%
- Hemolysis (%) 250 µM [1]: 96 ± 10%
- MIC Fo [2]: 12.5 to 25 µM
- MIC Pss [3]: 6.2 to 12.5 µM
- MIC Xav [4]: 6.2 to 12.5 µM
- MIC Ea [5]: 12.5 to 25 µM

SMILES: CC(C)C[C@@H]1NC(=O)[C@H](CCCCN)NC(=O)[C@H](CCCCN)NC(=O)[C@H](CCC(N)=O)NC(=O)[C@H](CC(C)C)NC(=O)[C@H](CCCCN)NC(=O)[C@H](CCCCN)NC(=O)[C@H](Cc2ccccc2)NC(=O)[C@H](CCCCNC(=O)CCCCCCCCCCCO)NC(=O)[C@H](CCCCN)NC1=O [BPC524, c(KKLKK(CO-C11H22OH)FKKLQ)] (cyclo(FKKLQKKLKK(X1)))
- Hemolysis (%) 150 µM [1]: 100 ± 8%
- Hemolysis (%) 250 µM [1]: 100 ± 6%
- MIC Fo [2]: 12.5 to 25 µM
- MIC Pss [3]: 12.5 to 25 µM
- MIC Xav [4]: 6.2 to 12.5 µM
- MIC Ea [5]: 25 to 50 µM
